“And” between values parts separate entries of the source, which are not always exact repeats. Equal entries are not always repeated.
System: picryl chloride-induced mouse contact dermatitis model
Assay: Suppression action on mouse contact dermatitis model by application on the auricle (auricle thickness)
Assay type: in vivo, mouse (male BALB/cA Jcl)
Protocol: From the supernatant of a culture broth obtained by cultivating the strain IJH-SONE68 in modified-SDM medium, exopolysaccharides produced by the strain were purified by the method disclosed in Example 2 to be supplied to experiments (1 mg/mL). The same concentration was used for a dipotassium glycyrrhizinate aqueous solution used as a control of an existing anti-inflammatory drug.
The mice used were male BALB/cA Jcl mice (7-week old at the time of arrival, CLEA Japan, Inc.). Five mice were housed in a breeding cage and bred in an animal breeding room in which environment was adjusted to temperature of 20 to 26° C., humidity of 40 to 60%, and lighting time of 12 hours (8:00 to 20:00). The mice were allowed to freely ingest solid feed MF (Oriental Yeast Co., Ltd.). In addition, with regard to a drinking water, the mice were allowed to freely ingest a purified water.
After carried in the cage, the mice were acclimated for 7 days. […]
On Day 6, the thickness of right auricle of the mice was measured in advance with a caliper, and then an allergic reaction was induced by applying 20 μL of a 1 w/v % picryl chloride solution on the front and back of the right auricle. […] Eighteen hours later (Day 7), the thickness of the auricle was measured, and the difference before and after the induction (A auricle thickness [mm]) was compared among the groups. […] Tukey's test or t test by Welch's method was used for a significant difference test among the groups, and it was determined that there was a significant difference when a risk factor (p value) was less than 0.05.

## CC1(C)[C@@H](O[C@H]2O[C@H](C(=O)[O-])[C@@H](O)[C@H](O)[C@H]2O[C@@H]2O[C@H](C(=O)[O-])[C@@H](O)[C@H](O)[C@H]2O)CC[C@]2(C)[C@H]3C(=O)C=C4[C@@H]5C[C@@](C)(C(=O)O)CC[C@]5(C)CC[C@@]4(C)[C@]3(C)CC[C@@H]12.[K+].[K+] [dipotassium glycyrrhizinate]
application, p<0.1
  Increase in auricle thickness due to inflammation vs control group (FIG. 7, Tukey test): tended to be suppressed
Group average, 20 μL of 1 mg/mL sample applied on right auricle 2 h after induction, measured 18 h later, control 0.28
  Increased amount of auricle thickness, Average: 0.184 mm
Individual mice, 20 μL of 1 mg/mL sample applied on right auricle 2 h after induction, measured 18 h later
  Increased amount of auricle thickness, each mouse: 0.20 mm and 0.06 mm and 0.22 mm (3×)

Source: patent US20210169953A1, “COMPOSITION FOR TYPE IV ALLERGY” (SONE FARM CO., LTD, priority 2018, published 2021)
